Reference: patent US9127021B2, “Hepatitis C virus inhibitors” (priority 2010, dated 2015)
Read-outs that look alike come from different tables or passages of the source.

How the values were obtained:
[1] = system: HCV 1b genotype replicon; test: HCV genotype 1b replicon assay (qRT-PCR or luciferase); format: cell-based; conditions: Hepatitis C virus
Text: HCV replicon cell lines (kindly provided by R. Bartenschlager) isolated from colonies as described by Lohman et al. (Lohman et al. (1999) Science 285: 110-113, expressly incorporated by reference in its entirety) and used for all experiments. The HCV replicon has the nucleic acid sequence set forth in EMBL Accession No.: AJ242651, the coding sequence of which is from nucleotides 1801 to 8406.
The coding sequence of the published HCV replicon was synthesized and subsequently assembled in a modified plasmid pBR322 (Promega, Madison, Wis.) using standard molecular biology techniques. […]
EC50 values of single agent compounds were determined by HCV RNA detection using quantitative RT-PCR, according to the manufacturer's instructions, with a TAQMAN® One-Step RT-PCR Master Mix Reagents Kit (Cat#AB 4309169, Applied Biosystems) on an ABI Model 7500 thermocycler. EC50 values of combinations are similarly determined by HCV RNA detection using quantitative RT-PCR. The TAQMAN primers to use for detecting and quantifying HCV RNA obtained from Integrated DNA Technologies. HCV RNA is normalized to GAPDH RNA levels in drug-treated cells, which is detected and quantified using the Human GAPDH Endogenous Control Mix (Applied Biosystems, AB 4310884E). […] Chemical agent cytotoxicity is evaluated using an MTS assay according to the manufacturer's directions (Promega). […]

[2] = system: HCV 1a genotype replicon; test: HCV genotype 1a replicon assay (qRT-PCR or luciferase); format: cell-based; conditions: Hepatitis C virus

Compound | EC50 ([1]; read-out: 1b EC50) [nM] | EC50 ([1]; read-out: Range (EC50 range against HCV 1b)) [nM] | EC50 ([2]; read-out: 1a EC50) [nM] | EC50 ([2]; read-out: Range (EC50 range against HCV 1a)) [nM]
COC(=O)N[C@H]1CCCCOCc2cc(-c3ccc4cc(-c5c[nH]c([C@@H]6CCCN6C(=O)[C@@H](NC(=O)OC)C(C)C)n5)ccc4c3)ccc2NC(=O)[C@@H]2CCCN2C1=O [Compound 350] | 0.05 | < 0.1 | – | –
COC(=O)N[C@H](C(=O)N1CCC[C@H]1c1nc(-c2ccc(-c3ccc4c(c3)COCCCCO[C@H](C)[C@H](NC(=O)OC)C(=O)N3CCC[C@H]3c3nc-4c[nH]3)cc2)c[nH]1)C(C)C [Compound 346] | – | – | 2.4 | > 1
